Where a name gives a salt, the structure may show the parent alone. Read-outs that look alike come from different tables or passages of the source.
What was measured:
[1] = tested on: fibrin-induced microglia activation; assay: Image-based assay of fibrin-induced microglia activation (HTS and dose response); assay type: cell-based, rat; conditions: primary microglia HTS, fibrin stimulation; for inhibition at 10 µM: Rattus norvegicus, Microglia, read-out: Fibrin % inhibition
[2] = tested on: LPS-induced microglia activation; assay: Image-based assay of LPS-induced microglia activation (HTS and dose response); assay type: cell-based, rat; conditions: for inhibition at 10 µM: Rattus norvegicus, Microglia, read-out: LPS % inhibition
[3] = tested on: fibrin- and LPS-induced microglia activation; assay: cells; assay type: cell-based, rat
primary rat microglia [4] = tested on: primary rat microglia
primary rat microglia [5] = assay: Cell toxicity (dead cells, size <150 μm2) in coated fibrin (cFib) assay; conditions: primary microglia HTS;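 further: share of dead cells sized under 150 µm2 at 10 µM in fibrin-stimulated microglia HTS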
[6] = quadrant by fibrin and LPS inhibition, HTS at 10 μM
[7] = fibrin assay, dead cells (size <150 μm2)
[8] = primary microglia HTS, LPS stimulation, compounds at 10 μM
[9] = classification by fibrin and LPS inhibition, HTS at 10 μM
[10] = fibrin assay, dead cells (size <150 μm2), compounds at 10 μM
[11] = cell size >800 μm2 as marker of activation
[12] = classification by fibrin and LPS inhibition in HTS
[13] = fibrin stimulation, cell size <150 μm2 as marker of toxicity

Compound	LPS % cell toxicity (primary rat microglia [4]; rat)	inhibition at 10 µM ([1]; compounds at 10 μM)	inhibition at 10 µM [2, 8]	Quadrant (FIG. 5b) [3, 9]	Fibrin % cell toxicity (primary rat microglia [5]; [10])	Quadrant (FIG. 5b) [3, 12]	Fibrin % cell toxicity (primary rat microglia [5]; [13])	other results
Nc1ncnc2c1ncn2[C@@H]1O[C@H](COP(=O)(O)O)[C@@H](O)[C@H]1O [Adenosine Phosphate]	2%							Fibrin % inhibition ([1]; compounds at 10 μM, 10 µM): 6%; LPS % inhibition ([2]; primary microglia HTS, LPS stimulation, compounds at 10 μM, 10 µM): 31%; Quadrant (FIG. 5b) [3, 6]: Q4; Fibrin % cell toxicity (primary rat microglia [5]; [7]): 1%
CCOc1ccc2nc3cc(N)ccc3c(N)c2c1 [Ethacridine Lactate]	0%	-64%	-8%	Q4	1%			
CN(C)C(=O)Oc1ccc[n+](C)c1 [Pyridostigmine]	0%					Q4	1%	inhibition at 10 µM [1, 11]: 4%; inhibition at 10 µM ([2]; 48 h): 9%
CC(C)(C)NCC(O)COc1cccc2c1CC(O)C(O)C2 (stereo not shown) [Nadolol]	3%	107%	108%					Quadrant (FIG. 5b) [3, 6]: Q2; Fibrin % cell toxicity (primary rat microglia [5]; [7]): 4%
CCN(CC)CCOC(=O)C(c1ccccc1)C1CCCCC1 (stereo not shown) [Drofenine Hydrochloride]	0%	-44%	9%	Q4	1%			
Cc1nc(-c2ccc(OCC(C)C)c(C#N)c2)sc1C(=O)O [Febuxostat]	0%	3%	10%	Q4	1%			
C[C@]12CC[C@@H]3c4ccc(OS(=O)(=O)O)cc4CC[C@H]3[C@@H]1CCC2=O [Estropipate]	0%	10%	10%	Q4	1%			
NC(=O)OCC(COC(N)=O)c1ccccc1 [Felbamate]	0%	-32%	0%	Q4	1%			
CC[C@@H]1C(=O)OC[C@@H]1Cc1cncn1C [Pilocarpine]	0%					Q4	1%	inhibition at 10 µM [1, 11]: -2%; inhibition at 10 µM ([2]; 48 h): 14%
O=C1c2cccc(O)c2C(=O)c2c(O)cccc21 [Dantron, Danthron]				Q4	0%			Fibrin % inhibition ([1]; compounds at 10 μM): −9%; LPS % inhibition [2, 8]: 13%; LPS % cell toxicity (primary rat microglia [4]): 0%
NCC[C@H](O)C(=O)N[C@@H]1C[C@H](N)[C@@H](O[C@H]2O[C@H](CN)[C@@H](O)[C@H](O)[C@H]2O)[C@H](O)[C@H]1O[C@H]1O[C@H](CO)[C@@H](O)[C@H](N)[C@H]1O.O=S(=O)(O)O.O=S(=O)(O)O [Amikacin Sulfate]								Fibrin % inhibition ([1]; compounds at 10 μM): 3%; LPS % inhibition [2, 8]: 1%; Quadrant (FIG. 5b) [3, 6]: Q4; LPS % cell toxicity (primary rat microglia [4]): 0%; Fibrin % cell toxicity (primary rat microglia [5]; [7]): 1%
CC(=O)NS(=O)(=O)c1ccc(NC(=O)c2ccccc2C(=O)O)cc1 [Phthalylsulfacetamide]	0%					Q4	1%	inhibition at 10 µM [1, 11]: 1%; inhibition at 10 µM ([2]; 48 h): -1%
CCn1cc(C(=O)O)c(=O)c2cnc(N3CCCC3)nc21 [Piromidic Acid]	0%					Q4	1%	inhibition at 10 µM [1, 11]: -30%; inhibition at 10 µM ([2]; 48 h): 7%
CN[C@@H]1[C@H](O)[C@H](NC)[C@H]2O[C@@]3(O)C(=O)C[C@@H](C)O[C@H]3O[C@@H]2[C@H]1O [Spectinomycin]	0%					Q4	0%	inhibition at 10 µM [1, 11]: 14%; inhibition at 10 µM ([2]; 48 h): 19%
CCCCCCOC(=O)NC(=N)c1ccc(NCc2nc3cc(C(=O)N(CCC(=O)OCC)c4ccccn4)ccc3n2C)cc1 [Dabigatran etexilate]	0%	3%	9%	Q4	0%			
CC(=O)Nc1ccc(C(=O)O)cc1 [4-acetamidobenzoic acid]	0%	32%	42%					Quadrant (FIG. 5b) [3, 6]: Q4; Fibrin % cell toxicity (primary rat microglia [5]; [7]): 1%
CCCCC(O)c1ccccc1 (stereo not shown) [Fenipentol]				Q4	1%			Fibrin % inhibition ([1]; compounds at 10 μM): −1%; LPS % inhibition [2, 8]: 25%; LPS % cell toxicity (primary rat microglia [4]): 0%
C[C@]12CC[C@@H]3c4ccc(O)cc4CC[C@H]3[C@@H]1CC[C@@H]2OC(=O)CCC1CCCC1 [Estradiol Cypionate]	0%	-25%	8%	Q4	0%			

Compound	LPS % cell toxicity (primary rat microglia [4]; rat)	inhibition at 10 µM ([1]; compounds at 10 μM)	inhibition at 10 µM [2, 8]	Quadrant (FIG. 5b) [3, 9]	Fibrin % cell toxicity (primary rat microglia [5]; [10])	Quadrant (FIG. 5b) [3, 12]	Fibrin % cell toxicity (primary rat microglia [5]; [13])	other results
OC[C@@H](O)[C@@H](O)CO [Erythritol]	0%	-25%	10%	Q4	1%			
Cc1c(N(C)C)c(=O)n(-c2ccccc2)n1C [Aminophenazone]	1%	-41%	20%					Quadrant (FIG. 5b) [3, 6]: Q4; Fibrin % cell toxicity (primary rat microglia [5]; [7]): 1%
C[C@@H]1O[C@@H](O[C@@H]2C=C3CC[C@@H]4[C@H](CC[C@]5(C)[C@@H](c6ccc(=O)oc6)CC[C@]45O)[C@@]3(C)CC2)[C@H](O)[C@H](O)[C@H]1O [Proscillaridin]	0%					Q4	1%	inhibition at 10 µM [1, 11]: 8%; inhibition at 10 µM ([2]; 48 h): 16%
CCCCC(CC)COC(=O)CC(C(=O)OCC(CC)CCCC)S(=O)(=O)[O-].[Na+] (stereo not shown) [Docusate Sodium]				Q4	0%			Fibrin % inhibition ([1]; compounds at 10 μM): −39%; LPS % inhibition [2, 8]: −4%; LPS % cell toxicity (primary rat microglia [4]): 0%
C[N+](C)(C)CCCCCCCCCC[N+](C)(C)C [Decamethonium]	0%	1%	17%	Q4	0%			
COc1cc2nc(N3CCN(C(=O)C4COc5ccccc5O4)CC3)nc(N)c2cc1OC (stereo not shown) [Doxazosin]	0%	-26%	6%	Q4	0%			
CCCCOc1ccc(OCCCN2CCOCC2)cc1 [Pramocaine]	0%					Q4	0%	inhibition at 10 µM [1, 11]: 14%; inhibition at 10 µM ([2]; 48 h): 13%
O=[N+]([O-])c1cc([As](=O)(O)O)ccc1O [Roxarsone]	1%					Q4	1%	Fibrin % inhibition [1, 11]: −18%; LPS % inhibition [2]: 17%
CCC(=O)c1ccc(O)cc1 [Paroxypropione]	0%					Q4	1%	inhibition at 10 µM [1, 11]: -11%; inhibition at 10 µM ([2]; 48 h): 17%
Nc1nc(NC2CC2)c2ncn([C@H]3C=C[C@@H](CO)C3)c2n1 [Abacavir Sulfate]	0%	-2%	3%					Quadrant (FIG. 5b) [3, 6]: Q4; Fibrin % cell toxicity (primary rat microglia [5]; [7]): 1%
CC(C)N(CCC(C(N)=O)(c1ccccc1)c1ccccn1)C(C)C (stereo not shown) [Disopyramide]	0%	-13%	1%	Q4	1%			
O=C1c2c(O)cccc2C([C@@H]2O[C@H](CO)[C@@H](O)[C@H](O)[C@H]2O)c2cc(CO)cc(O)c21 (stereo partly shown) [Aloin]	0%	-35%	14%					Quadrant (FIG. 5b) [3, 6]: Q4; Fibrin % cell toxicity (primary rat microglia [5]; [7]): 1%
NC[C@@H]1O[C@H](O[C@H]2[C@@H](O)[C@H](O[C@@H]3[C@@H](O)[C@H](N)C[C@H](N)[C@H]3O[C@H]3O[C@H](CO)[C@@H](O)[C@H](O)[C@H]3N)O[C@@H]2CO)[C@H](N)[C@@H](O)[C@@H]1O [Paromomycin Sulfate]	0%					Q4	1%	inhibition at 10 µM [1, 11]: 9%; inhibition at 10 µM ([2]; 48 h): 14%
NCC(O)CC(=O)O (stereo not shown) [Aminohydroxybutyric Acid]								Fibrin % inhibition ([1]; compounds at 10 μM): −4%; LPS % inhibition [2, 8]: 17%; Quadrant (FIG. 5b) [3, 6]: Q4; LPS % cell toxicity (primary rat microglia [4]): 0%; Fibrin % cell toxicity (primary rat microglia [5]; [7]): 1%
CCC(NC(C)C)C(O)c1ccc(O)c2[nH]c(=O)ccc12 (stereo not shown) [Procaterol]	0%					Q4	1%	inhibition at 10 µM [1, 11]: 16%; inhibition at 10 µM ([2]; 48 h): 21%
Nc1ccc2cc3ccc(N)cc3nc2c1 [Proflavine]	59%	113%	132%					Quadrant (FIG. 5b) [3, 6]: Q2; Fibrin % cell toxicity (primary rat microglia [5]; [7]): 82%
CC(=O)NCCCS(=O)(=O)[O-].CC(=O)NCCCS(=O)(=O)[O-].[Ca+2] [Acamprosate Calcium]								Fibrin % inhibition ([1]; compounds at 10 μM): 12%; LPS % inhibition [2, 8]: 22%; Quadrant (FIG. 5b) [3, 6]: Q4; LPS % cell toxicity (primary rat microglia [4]): 0%; Fibrin % cell toxicity (primary rat microglia [5]; [7]): 1%

From US20210330611A1, “THERAPY FOR NEUROLOGICAL DISEASES/DISORDERS” (priority 2020, published 2021)
